Measured values taken from patent US20110200662A1, “Method For The Treatment Of Proliferative Disorders Of The Eye” (priority 2008, published 2011).

Tests used:
[1] = system: HCT116 colon cancer cells; conditions: 250 times the GC50 concentration for 4 days; cited from earlier work
[2] = system: approximately 60 different human cancer cell lines; test: NCI DTP Human Tumor Cell Line Screen (colorimetric assay, 48 hours); type: cell-based; conditions: average value across the cell lines, 48 hours incubation
Method: FIG. 1 summarizes the screening results obtained with forty different anticancer agents in the National Cancer Institute (NCI) DTP Human Tumor Cell Line Screen in which approximately 60 different human cancer cell lines were incubated for 48 hours with the anticancer drugs. […] For details on the assay, find on the wide world web at dtp.nci.nih.gov/branches/btb/ivclsp. FIG. 1 presents for each drug the average value across the cell lines of the TGI, the LC50, and the ratio of LC50 to TGI.
In a preferred embodiment the drug is bizelesin. Bizelesin has a number of unexpected properties that make it highly suited for treating proliferative disorders of the eye. The drug is an ultra-potent irreversible inhibitor of cell proliferation. As few as 1 to approximately 10 bizelesin-DNA crosslinks can inhibit cell proliferation. The small number of drug molecules per cell needed to inhibit clonogenic potential limits collateral damage to cellular processes in nonproliferating cells. […] There is a large difference between the bizelesin concentration that inhibits cell proliferation and the concentration that kills cells. This unexpected property is in sharp contrast to typical anticancer drugs as evidence by the data shown in FIG. 1, which summarizes screening results obtained with forty different anticancer agents in the National Cancer Institute (NCI) DTP Human Tumor Cell Line Screen. […]

[3] = system: choroidal neovascularization; test: Laser induced mouse model of choroidal neovascularization, intravitreal injection; conditions: for inhibition of neovascularization in the area of the laser burn: single intravitreal dose of 0.6 ng, day 14
Source text: Details of the model are provided in Xie, B. et al., “Blockade of Sphingosine-1-phosphate Reduces Macrophage Influx and Retinal and Choroidal Neovascularization,” J Cell Physiol, 218(1): 192-8 (January 2009 Bizelesin was formulated in PBS as described in Example 1. In brief, 5-6 week old C57BL/6 mice on day 0 were anesthetized and choroidal neovascularization was induced by laser photocoagulation-induced rupture of Bruch's membrane. The mice were then given an intravitreal injection of 1 microliter of control diluent in one eye and in the contralateral fellow eye 1 microliter of solution containing 6 ng to 0.006 ng of Bizelesin. Ten mice were employed per dose level. On day 14 the mice were perfused with fluorescein-labeled dextran, the retinas were isolated, flat mounts prepared, and the area of neovascularization was determined with fluorescent microscopy and computerized image analysis.

[4] = unless given intravascularly; cited from earlier work
[5] = system: retinal neovascularization; test: Mouse model of ischemic proliferative retinopathy, intravitreal injection
Method: Intravitreal bizelesin was evaluated in the mouse model of ischemic proliferative retinopathy.
Bizelesin was dissolved in DMSO PharmaSolvent (Gaylord Chemical, Inc.) at 20 microgram/ml and filtered sterilized with a 0.2 micron Milliex-LG Millipore filter. […] The bizelesin solution was stored at −65 C or below. Immediately prior to administration the drug solution was thawed and diluted with sterile phosphate buffered saline (PBS).
In brief, for the ischemic proliferative retinopathy model, liters of C57BL/6 mice were exposed to 75% oxygen from P7 to P12 (P=age in days) and then returned to room air. On P12 the mice were anesthetized and given an intravitreal injection of 1 microliter of bizelesin solution or 1 microliter of control diluent. The dose of bizelesin ranged from 0.6 picogram to 0.6 nanograms. On the evening of P16 the mice were given an intravitreal injection of anti-mouse platelet endothelial cell adhesion molecule-1 (PECAM-1) antibody, which stain new blood vessels. On P17, the retinas were isolated, flat mounts prepared, and the area of neovascularization was determined with fluorescent microscopy and computerized image analysis.

cell proliferation = conditions: cited from earlier work
[6] = system: approximately 60 different human cancer cell lines; conditions: average value across the cell lines, 48 hours incubation; cited from earlier work
[7] = system: DNA repair response (RPA, γ-H2AX); conditions: non-proliferating cells; cited from earlier work
cellular DNA = conditions: cited from earlier work
retinal fibrosis = conditions: long-term follow-up; cited from earlier work

Molecule: Cc1c[nH]c2c(O)cc3c(c12)[C@H](CCl)CN3C(=O)c1cc2cc(NC(=O)Nc3ccc4[nH]c(C(=O)N5C[C@@H](CCl)c6c5cc(O)c5[nH]cc(C)c65)cc4c3)ccc2[nH]1 [bizelesin]
- apoptosis [1]: did not cause apoptosis
- ratio of LC50 to TGI [2]: 480
- clinical evidence of ocular toxicity ([3]; intravitreal 6 ng to 0.006 ng): no clinical evidence of ocular toxicity
- inhibition of neovascularization in the area of the laser burn [3]: nearly complete inhibition
- inhibition of neovascularization in the area of the laser burn ([3]; listed as Bizelesin): dramatic inhibition
- systemic bioavailability [4]: poor systemic bioavailability
- clinical evidence of ocular toxicity ([5]; intravitreal 0.6 nanogram): without any clinical evidence of ocular toxicity
- average area of neovascularization compared to diluent (p value) ([5]; single dose of 0.06 ng): highly statistically significant
- average area of neovascularization compared to diluent (p value) ([5]; single dose of 0.6 ng): highly statistically significant
- inhibition of proliferative retinopathy and neovascularization ([5]; single intravitreal injection of 0.6 nanogram on P12, read on P17): nearly complete inhibition
- GI50 (inhibition of cell proliferation) (cell proliferation): picomolar to sub-picomolar range
- TGI (drug concentration that completely inhibited cell growth) [6]: picomolar range

Molecule: Cc1c[nH]c2c1[C@@]13C[C@@H]1CN(C(=O)c1cc4cc(NC(=O)c5cc6ccccc6o5)ccc4[nH]1)C3=CC2=O [adozelesin]
- GI50 (inhibition of cell proliferation) (cell proliferation): picomolar to sub-picomolar range
- DNA repair response [7]: does not trigger A DNA repair response

Molecule: N.N.[Cl][Pt][Cl] [cisplatin]
- DNA adducts formed at concentrations that inhibit cell growth by 50% (cellular DNA): approximately 14,000

B1: ranibizumab (antibody, chains of the INN, looked up, V domains shown)
VH: EVQLVESGGGLVQPGGSLRLSCAASGYDFTHYGMNWVRQAPGKGLEWVGWINTYTGEPTYAADFKRRFTFSLDTSKSTAYLQMNSLRAEDTAVYYCAKYPYYYGTSHWYFDVWGQGTLVTVSS
VL: DIQLTQSPSSLSASVGDRVTITCSASQDISNYLNWYQQKPGKAPKVLIYFTSSLHSGVPSRFSGSGSGTDFTLTISSLQPEDFATYYCQQYSTVPWTFGQGTKVEIK
- patients who developed retinal fibrosis (retinal fibrosis): 50%
